# Tested on: ABCA-1 gene
# Test: compounds tested and found to elevate cellular expression of the ABCA-1 gene (Examples 1-6; test not named)
# Assay type: cell-based
# Method: Activity testing is conducted as described in those patents and patent applications referenced above, and in the Examples below, and by methods apparent to one skilled in the art.
row,Compound,cellular expression of the ABCA-1 gene
1,O=C(CCC1CCCC1)Nc1nc2ccccc2s1 [N-benzothiazol-2-yl-3-cyclopentylpropanamide],elevate cellular expression of the ABCA-1 gene
2,O=C(Nc1nc2ccccc2s1)c1ccncc1 [N-benzothiazol-2-yl-4-pyridylcarboxamide],elevate cellular expression of the ABCA-1 gene
3,O=C(Nc1nc2ccccc2s1)c1cnn(-c2ccc(Cl)cc2)c1C(F)(F)F [N-benzothiazol-2-yl[1-(4-chlorophenyl)-5-(trifluoromethyl)pyrazol-4-yl]carboxamide],elevate cellular expression of the ABCA-1 gene
4,CCCc1c(C(=O)Nc2nc3ccccc3s2)cnn1-c1ccc(Cl)cc1 [N-benzothiazol-2-yl[1-(4-chlorophenyl)-5-propylpyrazol-4-yl]carboxamide],elevate cellular expression of the ABCA-1 gene
5,O=C(Nc1nc2ccccc2s1)c1cnn(Cc2ccccc2)c1 [N-benzothiazol-2-yl[1-benzylpyrazol-4-yl]carboxamide],elevate cellular expression of the ABCA-1 gene
6,O=C(Nc1nc2ccccc2s1)c1cnn(-c2ccccc2)c1C(F)(F)F [N-benzothiazol-2-yl[1-phenyl-5-(trifluoromethyl)pyrazol-4-yl]carboxamide],elevate cellular expression of the ABCA-1 gene
7,"O=C(Nc1nc2ccccc2s1)c1cc(C(F)(F)F)cc(C(F)(F)F)c1 [N-benzothiazol-2-yl[3,5-bis(trifluoromethyl)phenyl]carboxamide]",elevate cellular expression of the ABCA-1 gene
8,Cc1onc(-c2ccccc2Cl)c1C(=O)Nc1nc2ccccc2s1 [N-benzothiazol-2-yl[3-(2-chlorophenyl)-5-methylisoxazol-4-yl]carboxamide],elevate cellular expression of the ABCA-1 gene
9,Cc1onc(-c2c(F)cccc2Cl)c1C(=O)Nc1nc2ccccc2s1 [N-benzothiazol-2-yl[3-(6-chloro-2-fluorophenyl)-5-methylisoxazol-4-yl]carboxamide],elevate cellular expression of the ABCA-1 gene
10,O=C(Nc1cccc(Cl)c1)Nc1nc2ccccc2s1 [N-benzothiazol-2-yl[(3-chlorophenyl)amino]carboxamide],elevate cellular expression of the ABCA-1 gene
11,O=C(Nc1nc2ccccc2s1)C1CCC1 [N-benzothiazol-2-ylcyclobutylcarboxamide],elevate cellular expression of the ABCA-1 gene
12,O=C(Nc1nc2ccccc2s1)c1ccno1 [N-benzothiazol-2-ylisoxazol-5-ylcarboxamide],elevate cellular expression of the ABCA-1 gene
13,CCCCC(=O)Nc1nc2ccccc2s1 [N-benzothiazol-2-ylpentanamide],elevate cellular expression of the ABCA-1 gene
14,"Cc1ccc(-c2csc(-n3ncc(C(=O)NC4CC5CCC4C5)c3C)n2)cc1 (stereo not shown) [N-bicyclo[2.2.1]hept-2-yl {5-methyl-1-[4-(4-methylphenyl)(1,3-thiazol-2-yl)]pyrazol-4-yl}carboxamide]",elevate cellular expression of the ABCA-1 gene
15,CCCCN(Cc1ccc(OCc2ccccc2)cc1)C(=O)Nc1ccc(SC)cc1 [N-butyl[(4-thiomethylphenyl)amino]-N-{[4-(phenylmethoxy)phenyl]methyl}-carboxamide],elevate cellular expression of the ABCA-1 gene
16,"Cc1c(C(=O)NC2CC2)cnn1-c1nc(-c2ccccc2)cs1 [N-cyclopropyl[5-methyl-1-(4-phenyl(1,3-thiazol-2-yl))pyrazol-4-yl]carboxamide]",elevate cellular expression of the ABCA-1 gene
17,O=C(Nc1ccccc1)Nc1ccc2c(c1)CCC2 [N-indan-5-yl(phenylamino)carboxamide],elevate cellular expression of the ABCA-1 gene
18,O=C(Nc1ccc2c(c1)CCC2)c1cccs1 [N-indan-5-yl-2-thienylcarboxamide],elevate cellular expression of the ABCA-1 gene
19,"CNC(=O)C(Sc1nnc(NC(=O)c2ccc(C)cc2)s1)C(C)=O (stereo not shown) [N-methyl-2-{5-[(4-methylphenyl)carbonylamino](1,3,4-thiadiazol-2-ylthio)}-3-oxobutanamide]",elevate cellular expression of the ABCA-1 gene
20,"CCC(c1nc2ccccc2c(=O)n1-c1ccc(C)c(C)c1)N(CCOC)C(=O)Nc1ccc(Cl)cc1 (stereo not shown) [N-{[3-(3,4-dimethylphenyl)-4-oxo(3-hydroquinazolin-2-yl)]propyl}[(4-chlorophenyl)amino]-N-(2-methoxyethyl)carboxamide]",elevate cellular expression of the ABCA-1 gene
21,"CCC(c1nc2ccccc2c(=O)n1-c1ccc(C)c(C)c1)N(Cc1ccccc1)C(=O)Nc1ccc(OC)cc1 (stereo not shown) [N-{[3-(3,4-dimethylphenyl)-4-oxo(3-hydroquinazolin-2-yl)]propyl}[(4-methoxyphenyl)amino]-N-benzylcarboxamide]",elevate cellular expression of the ABCA-1 gene
22,CCNC(=O)N(Cc1ccco1)C(C)c1nc2ccccc2c(=O)n1-c1ccc(Br)cc1 (stereo not shown) [N-{[3-(4-bromophenyl)-4-oxo(3-hydroquinazolin-2-yl)]ethyl}(ethylamino)-N-(2-furylmethyl)carboxamide],elevate cellular expression of the ABCA-1 gene
23,CCCCN(C(=O)Nc1ccc(OC)cc1)C(C)c1nc2ccccc2c(=O)n1-c1ccc(Br)cc1 (stereo not shown) [N-{[3-(4-bromophenyl)-4-oxo(3-hydroquinazolin-2-yl)]ethyl}-N-butyl[(4-methoxyphenyl)amino]carboxamide],elevate cellular expression of the ABCA-1 gene
24,CC(C)c1ccc(NC(=O)N(Cc2ccco2)C(C)c2nc3ccccc3c(=O)n2-c2ccc(Cl)cc2)cc1 (stereo not shown) [N-{[3-(4-chlorophenyl)-4-oxo(3-hydroquinazolin-2-yl)]ethyl}-N-(2-furylmethyl){[4-(methylethyl)phenyl]amino}carboxamide],elevate cellular expression of the ABCA-1 gene
25,CCCN(C(=O)Nc1cccc(OC)c1)C(C)c1nc2cc(Cl)ccc2c(=O)n1-c1ccc(C)cc1 (stereo not shown) [N-{[7-chloro-3-(4-methylphenyl)-4-oxo(3-hydroquinazolin-2-yl)]ethyl}[(3-methoxyphenyl)amino]-N-propylcarboxamide],elevate cellular expression of the ABCA-1 gene
26,Cc1c(C(=O)NC(=O)Nc2ccccc2Cl)cnn1-c1ccccc1 [N-{[(2-chlorophenyl)amino]carbonyl}(5-methyl-1-phenylpyrazol-4-yl)carboxamide],elevate cellular expression of the ABCA-1 gene
27,CCN(CCCN(CC)c1nc2cc(C(=O)Nc3ccc(OC)cc3)ccc2o1)C(=O)c1cccc(F)c1C [[2-(ethyl{3-[N-ethyl(3-fluoro-2-methylphenyl)carbonylamino]propyl}amino)benzoxazol-5-yl]-N-(4-methoxyphenyl)carboxamide],elevate cellular expression of the ABCA-1 gene
28,"O=C(Nc1ncc(-c2ccccc2)s1)c1ccc(C(F)(F)F)cc1F [[2-fluoro-4-(trifluoromethyl)phenyl]-N-(5-phenyl(1,3-thiazol-2-yl))carboxamide]",elevate cellular expression of the ABCA-1 gene

# Reference: patent publication US6900219B2, “ABCA-1 elevating compounds” (CV Therapeutics, Inc., priority 2002, dated 2005)
